molecular target: ACC2 (Homo sapiens, UniProt O00763); assay: In vitro ACC2 inhibition assay (ADP-Glo); assay type: biochemical; settings: read-out: ACC2
Outline: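 Enzyme (human ACC1 or ACC2) and compound, serially diluted 1:3 over 11 points from a 600 uM DMSO stock, were preincubated 15 min before substrate addition.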

Chain of ACC2 (O00763 whole entry, species assumed): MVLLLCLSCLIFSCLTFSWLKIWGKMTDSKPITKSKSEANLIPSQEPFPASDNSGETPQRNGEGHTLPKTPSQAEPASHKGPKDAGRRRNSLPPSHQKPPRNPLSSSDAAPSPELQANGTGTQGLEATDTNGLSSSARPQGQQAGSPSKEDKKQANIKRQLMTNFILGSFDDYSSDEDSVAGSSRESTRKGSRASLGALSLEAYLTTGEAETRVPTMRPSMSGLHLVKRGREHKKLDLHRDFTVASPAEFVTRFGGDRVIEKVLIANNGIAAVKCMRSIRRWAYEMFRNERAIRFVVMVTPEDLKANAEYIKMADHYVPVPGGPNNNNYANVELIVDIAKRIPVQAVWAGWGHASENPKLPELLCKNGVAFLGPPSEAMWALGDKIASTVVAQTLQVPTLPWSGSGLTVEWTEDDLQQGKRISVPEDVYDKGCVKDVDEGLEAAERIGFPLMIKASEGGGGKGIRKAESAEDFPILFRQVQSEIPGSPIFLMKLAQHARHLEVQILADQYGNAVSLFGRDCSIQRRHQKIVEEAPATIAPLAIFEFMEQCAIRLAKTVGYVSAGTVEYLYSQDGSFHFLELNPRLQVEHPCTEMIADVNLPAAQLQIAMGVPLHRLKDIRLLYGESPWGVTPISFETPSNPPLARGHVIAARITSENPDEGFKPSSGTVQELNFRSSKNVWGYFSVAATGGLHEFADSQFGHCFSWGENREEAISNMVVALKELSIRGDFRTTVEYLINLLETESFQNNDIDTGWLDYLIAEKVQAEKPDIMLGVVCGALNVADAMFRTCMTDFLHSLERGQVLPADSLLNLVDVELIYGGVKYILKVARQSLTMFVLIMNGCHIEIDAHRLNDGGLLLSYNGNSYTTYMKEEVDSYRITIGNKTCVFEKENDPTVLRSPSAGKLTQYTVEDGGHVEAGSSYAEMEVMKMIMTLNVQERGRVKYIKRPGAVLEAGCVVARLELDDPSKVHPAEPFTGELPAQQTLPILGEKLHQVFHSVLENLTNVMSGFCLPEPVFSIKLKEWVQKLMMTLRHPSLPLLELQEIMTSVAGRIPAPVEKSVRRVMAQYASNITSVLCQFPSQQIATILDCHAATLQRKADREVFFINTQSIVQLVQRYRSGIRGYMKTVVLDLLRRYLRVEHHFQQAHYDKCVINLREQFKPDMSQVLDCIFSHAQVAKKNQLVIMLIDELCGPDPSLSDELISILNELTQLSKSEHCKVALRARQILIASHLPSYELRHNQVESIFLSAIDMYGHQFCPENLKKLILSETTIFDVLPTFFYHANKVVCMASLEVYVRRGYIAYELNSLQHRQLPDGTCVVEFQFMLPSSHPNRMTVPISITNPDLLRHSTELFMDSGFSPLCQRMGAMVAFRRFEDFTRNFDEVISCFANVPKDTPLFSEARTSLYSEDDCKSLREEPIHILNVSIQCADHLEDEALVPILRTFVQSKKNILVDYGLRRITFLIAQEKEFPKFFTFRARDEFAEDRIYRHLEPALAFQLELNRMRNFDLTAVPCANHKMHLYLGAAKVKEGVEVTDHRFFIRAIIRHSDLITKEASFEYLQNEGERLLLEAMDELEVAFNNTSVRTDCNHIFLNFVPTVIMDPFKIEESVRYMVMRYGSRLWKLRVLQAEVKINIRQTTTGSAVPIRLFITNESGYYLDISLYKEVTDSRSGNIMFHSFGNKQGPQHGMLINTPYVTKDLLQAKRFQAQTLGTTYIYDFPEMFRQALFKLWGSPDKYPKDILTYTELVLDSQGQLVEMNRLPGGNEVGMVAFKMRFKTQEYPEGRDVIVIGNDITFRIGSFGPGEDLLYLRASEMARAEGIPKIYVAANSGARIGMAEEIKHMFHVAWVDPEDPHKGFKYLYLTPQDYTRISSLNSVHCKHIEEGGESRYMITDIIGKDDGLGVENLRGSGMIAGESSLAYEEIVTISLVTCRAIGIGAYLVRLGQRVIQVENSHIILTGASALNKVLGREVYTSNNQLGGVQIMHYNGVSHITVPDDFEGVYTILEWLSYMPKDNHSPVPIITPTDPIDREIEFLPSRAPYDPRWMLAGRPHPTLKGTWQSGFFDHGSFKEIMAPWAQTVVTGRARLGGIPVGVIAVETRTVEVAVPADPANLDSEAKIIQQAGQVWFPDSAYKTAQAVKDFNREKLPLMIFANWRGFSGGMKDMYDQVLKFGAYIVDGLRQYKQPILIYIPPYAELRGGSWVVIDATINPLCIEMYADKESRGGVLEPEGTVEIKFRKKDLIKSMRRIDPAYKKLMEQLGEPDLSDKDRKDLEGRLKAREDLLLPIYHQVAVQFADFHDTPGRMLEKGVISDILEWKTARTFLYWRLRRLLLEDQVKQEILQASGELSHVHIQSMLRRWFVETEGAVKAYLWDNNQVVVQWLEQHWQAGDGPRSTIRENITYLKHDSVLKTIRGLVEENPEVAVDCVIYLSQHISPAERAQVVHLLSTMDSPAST

Structure (SMILES) | IC50 [µM]
Cc1c(-c2ncco2)sc2c1c(=O)n(C(C)(C)C(=O)O)c(=O)n2C[C@H](O[C@H]1CCCC[C@@H]1C)c1ccccc1 [I-152, 2-methyl-2-[5-methyl-1-[(2R)-2-[[(1S,2S)-2-methylcyclohexyl]oxy]-2-phenylethyl]-6-(1,3-oxazol-2-yl)-2,4-dioxo-1H,2H,3H,4H-thieno[2,3-d]pyrimidin-3-yl]propanoic acid] | < 1
CCOC(=O)c1sc2c(c1C)c(=O)n(CC(=O)O)c(=O)n2C[C@@H](OC)c1ccccc1 [I-104, 2-[6-(ethoxycarbonyl)-1-[(2S)-2-methoxy-2-phenylethyl]-5-methyl-2,4-dioxo-1H,2H,3H,4H-thieno[2,3-d]pyrimidin-3-yl]acetic acid] | 20 to 50
Cc1c(-c2ncco2)sc2c1c(=O)n(C(C)(C)C(=O)O)c(=O)n2C[C@H](O[C@@H]1CCOC1)c1ccccc1 [I-186, 2-methyl-2-[5-methyl-6-(1,3-oxazol-2-yl)-2,4-dioxo-1-[(2R)-2-[(3R)-oxolan-3-yloxy]-2-phenylethyl]-1H,2H,3H,4H-thieno[2,3-d]pyrimidin-3-yl]propanoic acid] | < 1
CCOC(=O)c1sc2c(c1C)c(=O)n(CCO)c(=O)n2Cc1ccc2ccn(C)c2c1 [I-64] | > 50
Cc1c(-c2ncco2)sc2c1c(=O)n(C(C)(C)C(=O)O)c(=O)n2C[C@@H](OCC(F)(F)F)c1ccccc1 [I-138, (S)-2-methyl-2-(5-methyl-6-(oxazol-2-yl)-2,4-dioxo-1-(2-phenyl-2-(2,2,2-trifluoroethoxy)ethyl)-1,2-dihydrothieno[2,3-d]pyrimidin-3(4H)-yl)propanoic acid] | 5 to 20
CCOC(=O)c1sc2c(c1C)c(=O)n(CC(=O)O)c(=O)n2CC(=O)c1ccccc1 [I-73, 2-[6-(ethoxycarbonyl)-5-methyl-2,4-dioxo-1-(2-oxo-2-phenylethyl)-1H,2H,3H,4H-thieno[2,3-d]pyrimidin-3-yl]acetic acid] | 20 to 50
CCOC(=O)c1sc2c(c1C)c(=O)n(C(C)(C)C(N)=O)c(=O)n2C[C@@H](OC(C)C)c1ccccc1 [I-114, ethyl 3-(1-carbamoyl-1-methylethyl)-5-methyl-2,4-dioxo-1-[(2S)-2-phenyl-2-(propan-2-yloxy)ethyl]-1H,2H,3H,4H-thieno[2,3-d]pyrimidine-6-carboxylate] | 20 to 50
COc1ccccc1[C@H](Cn1c(=O)n(C(C)(C)C(=O)O)c(=O)c2c(C)c(-c3ncco3)sc21)OC1COC1 [I-261, (R)-2-(1-(2-(2-methoxyphenyl)-2-(oxetan-3-yloxy)ethyl)-5-methyl-6-(oxazol-2-yl)-2,4-dioxo-1,2-dihydrothieno[2,3-d]pyrimidin-3(4H)-yl)-2-methylpropanoic acid] | < 5
CCOC(=O)c1sc2c(c1C)c(=O)n(C(C)(C)C(=O)O)c(=O)n2C[C@H](OC(C)C)c1ccc(I)cc1 [I-129, (R)-2-(6-(ethoxycarbonyl)-1-(2-(4-iodophenyl)-2-isopropoxyethyl)-5-methyl-2,4-dioxo-1,2-dihydrothieno[2,3-d]pyrimidin-3(4H)-yl)-2-methylpropanoic acid] | 5 to 20
Cc1c(-c2ncco2)sc2c1c(=O)n(C(C)(C)C(=O)O)c(=O)n2C[C@@H](OC(C)C)c1ccccc1 [I-120, 2-methyl-2-[5-methyl-6-(1,3-oxazol-2-yl)-2,4-dioxo-1-[(2S)-2-phenyl-2-(propan-2-yloxy)ethyl]-1H,2H,3H,4H-thieno[2,3-d]pyrimidin-3-yl]propanoic acid] | 5 to 20
Cc1c(-c2ncco2)sc2c1c(=O)n(C(C)(C)C(=O)O)c(=O)n2C[C@H](O[C@H]1CCC[C@H](O)C1)c1ccccc1 [I-172, 2-(1-((R)-2-(((1S,3S)-3-hydroxycyclohexyl)oxy)-2-phenylethyl)-5-methyl-6-(oxazol-2-yl)-2,4-dioxo-1,2-dihydrothieno[2,3-d]pyrimidin-3(4H)-yl)-2-methylpropanoic acid] | < 1
Cc1c(C2CC2)sc2c1c(=O)n(C(C)(C)C(=O)O)c(=O)n2CCc1ccccc1 [I-132, 2-[6-cyclopropyl-5-methyl-2,4-dioxo-1-(2-phenylethyl)-1H,2H,3H,4H-thieno[2,3-d]pyrimidin-3-yl]-2-methylpropanoic acid] | 20 to 50
Cc1c(-c2ncco2)sc2c1c(=O)n(C(C)(C)C(=O)O)c(=O)n2C[C@H](OC1COC1)c1ccccc1 [I-182, 2-methyl-2-[5-methyl-6-(1,3-oxazol-2-yl)-1-[(2R)-2-(oxetan-3-yloxy)-2-phenylethyl]-2,4-dioxo-1H,2H,3H,4H-thieno[2,3-d]pyrimidin-3-yl]propanoic acid] | 20 to 50
CCCn1c(=O)c2c(C)c(C(=O)OCC)sc2n(CCc2ccccc2)c1=O [I-9, ethyl 5-methyl-2,4-dioxo-1-(2-phenylethyl)-3-propyl-1H,2H,3H,4H-thieno[2,3-d]pyrimidine-6-carboxylate] | > 50
CCCOC(=O)c1sc2c(c1C)c(=O)n(CCO)c(=O)n2CCc1ccccc1 [I-41, propyl 3-(2-hydroxyethyl)-5-methyl-2,4-dioxo-1-(2-phenylethyl)-1H,2H,3H,4H-thieno[2,3-d]pyrimidine-6-carboxylate] | > 50
Cc1c(-c2nccs2)sc2c1c(=O)n(C(C)(C)C(=O)O)c(=O)n2C[C@H](OC(C)C)c1ccccc1 [I-141, 2-methyl-2-[5-methyl-2,4-dioxo-1-[(2R)-2-phenyl-2-(propan-2-yloxy)ethyl]-6-(1,3-thiazol-2-yl)-1H,2H,3H,4H-thieno[2,3-d]pyrimidin-3-yl]propanoic acid] | < 5
COC(=O)c1sc2c(c1C)c(=O)n(CCO)c(=O)n2CCc1ccccc1 [I-37, methyl 3-(2-hydroxyethyl)-5-methyl-2,4-dioxo-1-(2-phenylethyl)-1H,2H,3H,4H-thieno[2,3-d]pyrimidine-6-carboxylate] | 5 to 20
CCOC(=O)c1sc2c(c1C)c(=O)n(CCO)c(=O)n2CCc1cc(F)cc(F)c1 [I-29, ethyl 1-[2-(3,5-difluorophenyl)ethyl]-3-(2-hydroxyethyl)-5-methyl-2,4-dioxo-1H,2H,3H,4H-thieno[2,3-d]pyrimidine-6-carboxylate] | > 50
Cc1c(-c2ncco2)sc2c1c(=O)n(C(C)(C)C(=O)O)c(=O)n2C[C@H](Oc1ccc(F)cc1)c1ccccc1 [I-149, (R)-2-(1-(2-(4-fluorophenoxy)-2-phenylethyl)-5-methyl-6-(oxazol-2-yl)-2,4-dioxo-1,2-dihydrothieno[2,3-d]pyrimidin-3(4H)-yl)-2-methylpropanoic acid] | < 1
Cc1c(-c2ncco2)sc2c1c(=O)n(C(C)(C)C(=O)O)c(=O)n2C[C@@H](Oc1ccc(-n2ccnc2)cc1)c1ccccc1 [I-161, 2-[1-[(2S)-2-[4-(1H-Imidazol-1-yl)phenoxy]-2-phenylethyl]-5-methyl-6-(1,3-oxazol-2-yl)-2,4-dioxo-1H,2H,3H,4H-thieno[2,3-d]pyrimidin-3-yl]-2-methylpropanoic acid] | < 5
CCOC(=O)c1sc2c(c1C)c(=O)n(CC)c(=O)n2CCc1ccccc1 [I-7, ethyl 3-ethyl-5-methyl-2,4-dioxo-1-(2-phenylethyl)-1H,2H,3H,4H-thieno[2,3-d]pyrimidine-6-carboxylate] | > 50
CCOC(=O)c1sc2c(c1C)c(=O)n(CCO)c(=O)n2CCc1cccc2ccccc12 [I-22] | > 50
COCc1sc2c(c1C)c(=O)n(CC(=O)O)c(=O)n2CCc1ccccc1 [I-75, 2-[6-(methoxymethyl)-5-methyl-2,4-dioxo-1-(2-phenylethyl)-1H,2H,3H,4H-thieno[2,3-d]pyrimidin-3-yl]acetic acid] | 5 to 20
